Laboratory results from ChEMBL document CHEMBL5442219.

What was measured:
Conditions in all cases: Compound concentration 10 µM
[1] = biological target: Sigma intracellular receptor 2 (Homo sapiens) (UniProt Q5BJF2)
Description: PDSP Primary Binding target: TMEM97 - Compounds are tested at 10 uM concentration, plate are incubated at room temperature in the dark for 90 minutes. Reaction are stopped by vacuum filtration onto 0.3% polyethyleneimine soaked filter mats using Filtermate harvester. Scintilation cocktail is then melted onto microwave-dried filters on a hot plate and the radio activity is counted in Microbia counter.

[2] = biological target: Mu-type opioid receptor (Homo sapiens) (UniProt P35372)
Description: PDSP Primary Binding target: OPRM1 - Compounds are tested at 10 uM concentration, plate are incubated at room temperature in the dark for 90 minutes. Reaction are stopped by vacuum filtration onto 0.3% polyethyleneimine soaked filter mats using Filtermate harvester. Scintilation cocktail is then melted onto microwave-dried filters on a hot plate and the radio activity is counted in Microbia counter.

[3] = biological target: T1, Muscarinic acetylcholine receptor M5 (Homo sapiens) (UniProt P08912)
T1 sequence (whole entry): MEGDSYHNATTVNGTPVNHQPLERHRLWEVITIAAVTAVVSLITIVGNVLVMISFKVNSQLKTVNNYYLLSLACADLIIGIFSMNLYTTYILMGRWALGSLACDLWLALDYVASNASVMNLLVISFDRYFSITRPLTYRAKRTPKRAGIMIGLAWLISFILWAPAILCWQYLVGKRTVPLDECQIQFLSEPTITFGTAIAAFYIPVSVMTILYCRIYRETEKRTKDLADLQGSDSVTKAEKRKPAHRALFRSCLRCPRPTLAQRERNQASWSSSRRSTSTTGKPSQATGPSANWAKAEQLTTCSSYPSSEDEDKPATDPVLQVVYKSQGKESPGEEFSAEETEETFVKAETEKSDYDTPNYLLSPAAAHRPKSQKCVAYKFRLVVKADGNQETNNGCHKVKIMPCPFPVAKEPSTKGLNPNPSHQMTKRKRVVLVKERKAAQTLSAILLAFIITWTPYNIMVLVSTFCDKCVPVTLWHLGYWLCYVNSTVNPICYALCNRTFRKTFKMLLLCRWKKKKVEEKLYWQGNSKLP
Description: PDSP Primary Binding target: CHRM5 - Compounds are tested at 10 uM concentration, plate are incubated at room temperature in the dark for 90 minutes. Reaction are stopped by vacuum filtration onto 0.3% polyethyleneimine soaked filter mats using Filtermate harvester. Scintilation cocktail is then melted onto microwave-dried filters on a hot plate and the radio activity is counted in Microbia counter.

[4] = biological target: D(1A) dopamine receptor (Homo sapiens) (UniProt P21728)
Sequence of D(1A) dopamine receptor (Homo sapiens) (P21728 whole entry): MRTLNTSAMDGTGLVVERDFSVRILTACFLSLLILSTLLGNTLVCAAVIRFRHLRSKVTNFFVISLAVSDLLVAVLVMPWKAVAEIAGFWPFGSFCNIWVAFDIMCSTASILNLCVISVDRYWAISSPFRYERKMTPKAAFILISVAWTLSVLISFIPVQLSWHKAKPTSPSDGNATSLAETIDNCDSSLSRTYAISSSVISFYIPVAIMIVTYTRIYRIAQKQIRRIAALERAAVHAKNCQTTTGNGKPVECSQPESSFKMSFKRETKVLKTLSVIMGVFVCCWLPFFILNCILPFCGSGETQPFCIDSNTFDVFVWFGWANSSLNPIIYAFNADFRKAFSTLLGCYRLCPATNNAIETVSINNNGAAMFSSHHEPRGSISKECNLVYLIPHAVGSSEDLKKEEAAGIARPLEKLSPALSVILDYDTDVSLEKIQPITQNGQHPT
Description: PDSP Primary Binding target: DRD1 - Compounds are tested at 10 uM concentration, plate are incubated at room temperature in the dark for 90 minutes. Reaction are stopped by vacuum filtration onto 0.3% polyethyleneimine soaked filter mats using Filtermate harvester. Scintilation cocktail is then melted onto microwave-dried filters on a hot plate and the radio activity is counted in Microbia counter.

[5] = biological target: 5-hydroxytryptamine receptor 6 (Homo sapiens) (UniProt P50406)
Sequence of 5-hydroxytryptamine receptor 6 (Homo sapiens) (P50406 whole entry): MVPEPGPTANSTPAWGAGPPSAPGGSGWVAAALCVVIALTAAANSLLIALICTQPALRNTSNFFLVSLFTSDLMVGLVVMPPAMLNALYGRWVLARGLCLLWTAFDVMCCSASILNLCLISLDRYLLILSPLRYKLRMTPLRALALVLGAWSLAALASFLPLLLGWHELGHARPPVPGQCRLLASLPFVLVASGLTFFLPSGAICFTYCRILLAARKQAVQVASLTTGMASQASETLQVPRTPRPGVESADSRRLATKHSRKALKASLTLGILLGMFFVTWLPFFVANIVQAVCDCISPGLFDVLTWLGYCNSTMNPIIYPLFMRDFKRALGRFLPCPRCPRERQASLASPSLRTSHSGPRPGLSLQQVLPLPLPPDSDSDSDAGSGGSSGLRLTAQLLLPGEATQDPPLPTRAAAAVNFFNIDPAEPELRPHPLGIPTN
Description: PDSP Primary Binding target: HTR6 - Compounds are tested at 10 uM concentration, plate are incubated at room temperature in the dark for 90 minutes. Reaction are stopped by vacuum filtration onto 0.3% polyethyleneimine soaked filter mats using Filtermate harvester. Scintilation cocktail is then melted onto microwave-dried filters on a hot plate and the radio activity is counted in Microbia counter.

[6] = biological target: 5-hydroxytryptamine receptor 2B (Homo sapiens) (UniProt P41595)
Sequence of 5-hydroxytryptamine receptor 2B (Homo sapiens) (P41595 whole entry): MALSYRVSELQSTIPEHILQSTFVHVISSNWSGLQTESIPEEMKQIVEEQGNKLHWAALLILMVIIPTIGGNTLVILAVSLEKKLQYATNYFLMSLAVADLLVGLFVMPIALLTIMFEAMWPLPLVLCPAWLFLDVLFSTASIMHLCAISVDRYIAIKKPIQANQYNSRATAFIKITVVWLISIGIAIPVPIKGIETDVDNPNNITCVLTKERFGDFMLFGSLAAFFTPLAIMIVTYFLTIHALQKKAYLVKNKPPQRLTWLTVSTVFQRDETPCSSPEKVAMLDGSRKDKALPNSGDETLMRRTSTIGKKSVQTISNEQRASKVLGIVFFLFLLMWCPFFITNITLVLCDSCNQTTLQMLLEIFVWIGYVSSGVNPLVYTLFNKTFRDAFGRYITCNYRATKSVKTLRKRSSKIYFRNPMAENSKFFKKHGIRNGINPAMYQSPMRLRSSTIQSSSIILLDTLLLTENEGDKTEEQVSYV
Description: PDSP Primary Binding target: HTR2B - Compounds are tested at 10 uM concentration, plate are incubated at room temperature in the dark for 90 minutes. Reaction are stopped by vacuum filtration onto 0.3% polyethyleneimine soaked filter mats using Filtermate harvester. Scintilation cocktail is then melted onto microwave-dried filters on a hot plate and the radio activity is counted in Microbia counter.

[7] = biological target: T2, Alpha-2A adrenergic receptor (Homo sapiens) (UniProt P08913)
T2 sequence (whole entry): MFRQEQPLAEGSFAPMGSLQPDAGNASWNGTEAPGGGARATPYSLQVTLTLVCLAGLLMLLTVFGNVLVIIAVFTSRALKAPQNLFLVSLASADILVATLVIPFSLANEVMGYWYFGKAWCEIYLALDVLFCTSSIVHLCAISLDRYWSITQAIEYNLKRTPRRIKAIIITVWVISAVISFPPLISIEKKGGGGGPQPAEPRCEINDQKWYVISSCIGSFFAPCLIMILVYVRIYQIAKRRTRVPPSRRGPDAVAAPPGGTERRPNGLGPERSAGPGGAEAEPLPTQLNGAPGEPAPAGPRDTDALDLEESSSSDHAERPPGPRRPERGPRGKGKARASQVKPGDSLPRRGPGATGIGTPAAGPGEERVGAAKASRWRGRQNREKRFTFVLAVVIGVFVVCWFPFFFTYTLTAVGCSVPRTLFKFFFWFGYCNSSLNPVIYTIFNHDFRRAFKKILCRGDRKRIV
Description: PDSP Primary Binding target: ADRA2A - Compounds are tested at 10 uM concentration, plate are incubated at room temperature in the dark for 90 minutes. Reaction are stopped by vacuum filtration onto 0.3% polyethyleneimine soaked filter mats using Filtermate harvester. Scintilation cocktail is then melted onto microwave-dried filters on a hot plate and the radio activity is counted in Microbia counter.

[8] = biological target: 5-hydroxytryptamine receptor 1E (Homo sapiens) (UniProt P28566)
Sequence of 5-hydroxytryptamine receptor 1E (Homo sapiens) (P28566 whole entry): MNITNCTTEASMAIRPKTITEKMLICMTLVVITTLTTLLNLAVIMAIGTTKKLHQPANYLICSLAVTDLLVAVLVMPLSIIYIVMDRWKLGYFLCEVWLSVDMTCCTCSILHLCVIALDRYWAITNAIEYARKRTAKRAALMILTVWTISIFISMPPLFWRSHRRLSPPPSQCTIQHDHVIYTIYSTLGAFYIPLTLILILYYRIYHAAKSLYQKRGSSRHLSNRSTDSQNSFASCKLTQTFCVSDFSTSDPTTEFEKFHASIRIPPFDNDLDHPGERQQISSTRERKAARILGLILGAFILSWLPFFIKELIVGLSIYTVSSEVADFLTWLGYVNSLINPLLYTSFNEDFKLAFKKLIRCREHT
Description: PDSP Primary Binding target: HTR1E - Compounds are tested at 10 uM concentration, plate are incubated at room temperature in the dark for 90 minutes. Reaction are stopped by vacuum filtration onto 0.3% polyethyleneimine soaked filter mats using Filtermate harvester. Scintilation cocktail is then melted onto microwave-dried filters on a hot plate and the radio activity is counted in Microbia counter.

[9] = biological target: 5-hydroxytryptamine receptor 2A (Homo sapiens) (UniProt P28223)
Sequence of 5-hydroxytryptamine receptor 2A (Homo sapiens) (P28223 whole entry): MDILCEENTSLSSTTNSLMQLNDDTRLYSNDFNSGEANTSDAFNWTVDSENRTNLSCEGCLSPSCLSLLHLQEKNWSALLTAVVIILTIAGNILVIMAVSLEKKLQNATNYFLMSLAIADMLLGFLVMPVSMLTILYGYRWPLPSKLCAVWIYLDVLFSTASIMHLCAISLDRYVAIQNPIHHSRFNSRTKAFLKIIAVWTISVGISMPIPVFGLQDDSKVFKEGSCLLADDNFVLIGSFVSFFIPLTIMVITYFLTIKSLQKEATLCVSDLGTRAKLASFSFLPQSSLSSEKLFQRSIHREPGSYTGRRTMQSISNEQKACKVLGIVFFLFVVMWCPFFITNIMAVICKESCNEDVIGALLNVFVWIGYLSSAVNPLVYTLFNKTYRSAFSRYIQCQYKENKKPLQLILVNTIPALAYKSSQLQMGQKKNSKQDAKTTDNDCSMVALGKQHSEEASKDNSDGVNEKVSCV
Description: PDSP Primary Binding target: HTR2A - Compounds are tested at 10 uM concentration, plate are incubated at room temperature in the dark for 90 minutes. Reaction are stopped by vacuum filtration onto 0.3% polyethyleneimine soaked filter mats using Filtermate harvester. Scintilation cocktail is then melted onto microwave-dried filters on a hot plate and the radio activity is counted in Microbia counter.

[10] = biological target: T3, 5-hydroxytryptamine receptor 3A (Homo sapiens) (UniProt P46098)
T3 sequence (whole entry): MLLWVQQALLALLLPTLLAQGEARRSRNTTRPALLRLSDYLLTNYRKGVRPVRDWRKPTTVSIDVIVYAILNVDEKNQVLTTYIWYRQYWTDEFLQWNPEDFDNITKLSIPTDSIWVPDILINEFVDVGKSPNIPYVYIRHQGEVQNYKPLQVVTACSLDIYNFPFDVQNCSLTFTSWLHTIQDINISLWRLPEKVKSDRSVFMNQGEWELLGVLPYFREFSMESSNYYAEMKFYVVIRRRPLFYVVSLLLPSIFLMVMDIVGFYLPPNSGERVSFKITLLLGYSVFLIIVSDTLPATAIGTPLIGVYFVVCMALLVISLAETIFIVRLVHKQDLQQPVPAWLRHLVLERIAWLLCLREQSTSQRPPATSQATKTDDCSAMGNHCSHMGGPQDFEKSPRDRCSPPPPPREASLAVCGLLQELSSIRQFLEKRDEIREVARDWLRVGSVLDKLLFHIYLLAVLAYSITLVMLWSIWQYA
Description: PDSP Primary Binding target: HTR3A - Compounds are tested at 10 uM concentration, plate are incubated at room temperature in the dark for 90 minutes. Reaction are stopped by vacuum filtration onto 0.3% polyethyleneimine soaked filter mats using Filtermate harvester. Scintilation cocktail is then melted onto microwave-dried filters on a hot plate and the radio activity is counted in Microbia counter.

[11] = biological target: Beta-2 adrenergic receptor (Homo sapiens) (UniProt P07550)
Sequence of Beta-2 adrenergic receptor (Homo sapiens) (P07550 whole entry, looked up): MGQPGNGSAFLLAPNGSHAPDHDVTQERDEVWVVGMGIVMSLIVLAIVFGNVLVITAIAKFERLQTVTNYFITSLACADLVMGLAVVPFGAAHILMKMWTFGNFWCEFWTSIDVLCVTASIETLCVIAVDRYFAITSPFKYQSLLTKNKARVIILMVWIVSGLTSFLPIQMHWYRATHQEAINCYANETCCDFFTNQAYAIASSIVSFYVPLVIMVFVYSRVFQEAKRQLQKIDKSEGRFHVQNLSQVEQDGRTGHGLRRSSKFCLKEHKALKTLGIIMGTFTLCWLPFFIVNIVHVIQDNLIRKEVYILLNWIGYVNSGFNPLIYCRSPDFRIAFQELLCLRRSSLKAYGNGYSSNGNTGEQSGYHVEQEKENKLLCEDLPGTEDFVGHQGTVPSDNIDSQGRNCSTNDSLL
Description: PDSP Primary Binding target: ADRB2 - Compounds are tested at 10 uM concentration, plate are incubated at room temperature in the dark for 90 minutes. Reaction are stopped by vacuum filtration onto 0.3% polyethyleneimine soaked filter mats using Filtermate harvester. Scintilation cocktail is then melted onto microwave-dried filters on a hot plate and the radio activity is counted in Microbia counter.

[12] = biological target: D(3) dopamine receptor (Homo sapiens) (UniProt P35462)
Sequence of D(3) dopamine receptor (Homo sapiens) (P35462 whole entry): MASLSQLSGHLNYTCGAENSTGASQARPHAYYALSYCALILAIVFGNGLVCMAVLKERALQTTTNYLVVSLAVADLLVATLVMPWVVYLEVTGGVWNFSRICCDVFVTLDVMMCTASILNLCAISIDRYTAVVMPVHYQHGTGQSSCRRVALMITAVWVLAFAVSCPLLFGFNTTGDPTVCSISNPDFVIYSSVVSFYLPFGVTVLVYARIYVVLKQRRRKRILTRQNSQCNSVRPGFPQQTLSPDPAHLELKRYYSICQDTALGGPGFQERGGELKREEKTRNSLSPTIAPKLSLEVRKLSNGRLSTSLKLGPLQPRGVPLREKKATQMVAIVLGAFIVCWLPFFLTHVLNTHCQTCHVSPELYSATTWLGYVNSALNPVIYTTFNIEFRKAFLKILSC
Description: PDSP Primary Binding target: DRD3 - Compounds are tested at 10 uM concentration, plate are incubated at room temperature in the dark for 90 minutes. Reaction are stopped by vacuum filtration onto 0.3% polyethyleneimine soaked filter mats using Filtermate harvester. Scintilation cocktail is then melted onto microwave-dried filters on a hot plate and the radio activity is counted in Microbia counter.

[13] = biological target: T4, Muscarinic acetylcholine receptor M1 (Homo sapiens) (UniProt P11229)
T4 sequence (whole entry): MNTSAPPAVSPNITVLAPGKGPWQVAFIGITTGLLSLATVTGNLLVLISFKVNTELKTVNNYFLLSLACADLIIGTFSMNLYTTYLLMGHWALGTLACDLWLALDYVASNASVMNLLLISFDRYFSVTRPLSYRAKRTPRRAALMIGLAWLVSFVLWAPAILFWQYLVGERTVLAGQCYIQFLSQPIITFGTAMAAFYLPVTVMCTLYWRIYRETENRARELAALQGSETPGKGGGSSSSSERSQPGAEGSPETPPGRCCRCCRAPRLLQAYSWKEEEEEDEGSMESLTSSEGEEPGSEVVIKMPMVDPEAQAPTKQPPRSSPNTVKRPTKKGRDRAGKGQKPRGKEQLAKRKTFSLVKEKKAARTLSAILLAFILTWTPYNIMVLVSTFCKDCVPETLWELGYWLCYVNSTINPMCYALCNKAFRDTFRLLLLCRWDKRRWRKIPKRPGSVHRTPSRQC
Description: PDSP Primary Binding target: CHRM1 - Compounds are tested at 10 uM concentration, plate are incubated at room temperature in the dark for 90 minutes. Reaction are stopped by vacuum filtration onto 0.3% polyethyleneimine soaked filter mats using Filtermate harvester. Scintilation cocktail is then melted onto microwave-dried filters on a hot plate and the radio activity is counted in Microbia counter.

[14] = biological target: 5-hydroxytryptamine receptor 1D (Homo sapiens) (UniProt P28221)
Sequence of 5-hydroxytryptamine receptor 1D (Homo sapiens) (P28221 whole entry): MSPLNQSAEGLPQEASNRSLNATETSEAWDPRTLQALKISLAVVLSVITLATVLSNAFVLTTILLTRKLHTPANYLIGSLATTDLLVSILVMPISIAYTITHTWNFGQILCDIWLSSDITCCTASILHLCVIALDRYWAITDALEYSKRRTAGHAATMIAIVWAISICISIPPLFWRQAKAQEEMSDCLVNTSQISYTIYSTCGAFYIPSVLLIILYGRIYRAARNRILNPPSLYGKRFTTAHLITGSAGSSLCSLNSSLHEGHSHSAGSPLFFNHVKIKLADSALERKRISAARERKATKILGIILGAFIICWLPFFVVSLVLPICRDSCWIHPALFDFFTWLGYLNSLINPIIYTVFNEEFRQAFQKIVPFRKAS
Description: PDSP Primary Binding target: HTR1D - Compounds are tested at 10 uM concentration, plate are incubated at room temperature in the dark for 90 minutes. Reaction are stopped by vacuum filtration onto 0.3% polyethyleneimine soaked filter mats using Filtermate harvester. Scintilation cocktail is then melted onto microwave-dried filters on a hot plate and the radio activity is counted in Microbia counter.

[15] = biological target: Beta-1 adrenergic receptor (Homo sapiens) (UniProt P08588)
Sequence of Beta-1 adrenergic receptor (Homo sapiens) (P08588 whole entry, looked up): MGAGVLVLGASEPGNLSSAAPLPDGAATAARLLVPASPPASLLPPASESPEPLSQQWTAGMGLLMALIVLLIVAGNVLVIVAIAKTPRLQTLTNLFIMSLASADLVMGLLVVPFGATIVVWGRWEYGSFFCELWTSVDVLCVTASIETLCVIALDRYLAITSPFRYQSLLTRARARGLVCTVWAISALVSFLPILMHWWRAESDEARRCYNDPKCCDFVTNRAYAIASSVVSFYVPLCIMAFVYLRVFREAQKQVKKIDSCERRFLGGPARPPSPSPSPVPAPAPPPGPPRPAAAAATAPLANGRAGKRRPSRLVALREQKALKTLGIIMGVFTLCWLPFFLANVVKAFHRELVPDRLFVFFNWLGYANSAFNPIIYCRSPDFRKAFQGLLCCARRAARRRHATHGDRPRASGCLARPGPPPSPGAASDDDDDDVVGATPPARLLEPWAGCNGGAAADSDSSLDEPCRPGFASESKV
Description: PDSP Primary Binding target: ADRB1 - Compounds are tested at 10 uM concentration, plate are incubated at room temperature in the dark for 90 minutes. Reaction are stopped by vacuum filtration onto 0.3% polyethyleneimine soaked filter mats using Filtermate harvester. Scintilation cocktail is then melted onto microwave-dried filters on a hot plate and the radio activity is counted in Microbia counter.

Sequence of Sigma intracellular receptor 2 (Homo sapiens) (Q5BJF2 whole entry): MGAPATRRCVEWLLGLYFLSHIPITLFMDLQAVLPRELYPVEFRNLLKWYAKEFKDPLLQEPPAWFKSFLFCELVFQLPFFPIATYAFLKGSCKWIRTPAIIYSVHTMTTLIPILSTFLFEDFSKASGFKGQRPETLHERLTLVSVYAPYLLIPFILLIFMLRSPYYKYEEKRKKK
Sequence of Mu-type opioid receptor (Homo sapiens) (P35372 whole entry): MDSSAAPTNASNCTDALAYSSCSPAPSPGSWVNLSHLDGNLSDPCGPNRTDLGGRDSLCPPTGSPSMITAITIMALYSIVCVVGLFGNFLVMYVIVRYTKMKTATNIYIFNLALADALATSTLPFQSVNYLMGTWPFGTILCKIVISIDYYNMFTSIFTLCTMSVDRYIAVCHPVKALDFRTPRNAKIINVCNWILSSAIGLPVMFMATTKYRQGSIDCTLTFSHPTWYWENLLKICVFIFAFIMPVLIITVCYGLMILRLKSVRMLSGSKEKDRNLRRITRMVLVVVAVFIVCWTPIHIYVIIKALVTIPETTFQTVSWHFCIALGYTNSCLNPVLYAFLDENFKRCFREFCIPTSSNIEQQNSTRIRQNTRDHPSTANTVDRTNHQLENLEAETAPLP

Structure (SMILES)	inhibition [1] [%]	inhibition [2] [%]	inhibition [3] [%]	inhibition [4] [%]	inhibition [5] [%]	inhibition [6] [%]	inhibition [7] [%]	inhibition [8] [%]	inhibition [9] [%]	inhibition [10] [%]	inhibition [11] [%]	inhibition [12] [%]	inhibition [13] [%]	inhibition [14] [%]	inhibition [15] [%]
CNC[C@H](O)c1cccc(O)c1	24.9	2.89	-2.82	11.1	9.39	20.3	78.2	23.9	25.3	0.2	-1.97	12.7	7.7	48.1	
Cc1nc2sccn2c(=O)c1CCN1CCC(=C(c2ccc(F)cc2)c2ccc(F)cc2)CC1	98.7	63.5	-0.02	99.5	98.1	89.4	98.8	80.8	91	4.51	1.44	94.6	18.5		19
N#Cc1c(N)nc(SCC(N)=O)c(C#N)c1-c1ccc(OCC2CC2)cc1		-0.63	10.4		3.97	12.7	-1.71		28.7			-6.34	1.45		
Oc1ccc2c3c1O[C@H]1c4[nH]c5c(c4C[C@@]4(O)[C@@H](C2)N(CC2CC2)CC[C@]314)C[C@@]1(O)[C@H]2Cc3ccc(O)c4c3[C@@]1(CCN2CC1CC1)[C@H]5O4	30.2	80.6	-0.25	33.5	11.4	14.2	6.23		18.3	6.54	-6.53	4.68	4.47		1.77
CC(C)NCC(O)COc1ccc(CCOCC2CC2)cc1 (stereo not drawn)	76.2	3.09	0.46	1.75	-5.1	32.1	20.5	5.21	8.23	-0.24		5.81	0.88	5.07	
CC(C)NCC(O)COc1cccc2ccccc12 (stereo not drawn)	90	17.4	6.07	4.93	74.2	86.3	16.4	3.24		8.73		23.3		87.2	
C[C@@H](N)Cc1c[nH]cn1	20.2		-5.67	14.2	2.58	35.1	8.47	14.9	-2.41	5.88	10.2	8.41	2.87	6.42	
C=CCN1C[C@H](C)N([C@H](c2ccc(C(=O)N(CC)CC)cc2)c2cccc(O)c2)C[C@H]1C	46.7	98.5		2.02	5.03	30	17.8	19.5	2.09	10	3.05	6.85	4.09	31.4	
O=S1(=O)c2cccc3cccc(c23)N1CCCN1CCN(c2ccc(F)cc2)CC1	96.9	43	15.9	59.8	52.9	93.9	96.8	-4.51	103	32.9	21.3	58.5	12.9		8.94
O=C(Nc1ccc(Cl)cc1)Nc1cccc(-c2cccc(N3CCCC3)n2)c1	6.97	-5.02	-5.29	6.95		10.6	3.23	2.89	11	-5.81		48.5	9.22		
COc1cc2c(CCNC(C)=O)c[nH]c2cc1Cl	-5.25	-1.77		5.8		57.2	13.4	16.3	-6.6		3.89		-4.88	45.4	
CN1CC(=O)N=C1NC(=O)Nc1cccc(Cl)c1	0.02	5.37	6.05	14.5	-0.6	48.7	3.42	7.82	1.19	-5.43	-8.89	-3.16		4.68	
CC(C)(C)NC[C@H](O)COc1nsnc1N1CCOCC1	10.5	-1.47	2.12			16.9	11.8	7.32				-0.36		19.4	
N=C(N)SCCc1c[nH]cn1	13.8	-3.13			-1.7	33	51.5	26.2	-6.33	45.7	6.81	-0.38			3.8
Nc1nc(NCCc2ccc(O)cc2)nc2nc(-c3ccco3)nn12	90.6	0.03		-2.49		84.3	19		17.1	1.4	-3.4	19.9		19.7	22.3
Cc1cccc(NC(=O)N[C@@H]2N=C(c3ccccc3)c3ccccc3N(C)C2=O)c1	15.4	5.79			6.3	63	13.9	18.6	53.4	-5.37	-4.38	0.6		24.6	
